These results are taken from patent publication US20070037875A1, “Genistein inhibition of transthyretin amyloidosis” (The Scripps Research Institute, priority 2005, published 2007).

The structures appear in SMILES notation. Where two headings read alike, the source gives them in different places. A value given as a limit tells only on which side of the number the result lay.

The target in data set [1] is T1, WT TTR (Homo sapiens, UniProt P02766).
T1 construct: made in house; host or cells: E. coli
Briefly: Stagnant transthyretin aggregation (fibril formation) assay, turbidity. Format: biochemical.
Experimental: Stagnant aggregation assays were performed as described previously (Lashuel, H. A.; et al. Biochemistry 1999, 38, 13560-13573). A 0.495 mL sample of TTR (7.6 μM (0.4 mg/mL) in 10 mM sodium phosphate, 100 mM KCl, and 1 mM EDTA at pH 7.0) was incubated with 5 μL of isoflavone or flavone inhibitor in DMSO (0.76 mM or 1.44 mM). After 30 min, the samples were diluted with 0.5 mL of 200 mM acetate buffer (pH 4.2, final pH 4.4 for WT and V122I, pH 4.8, final pH 5.0 for V30M) containing 100 mM KCl and 1 mM EDTA. Samples were briefly vortexed and then further incubated at 37° C. for 72 h without stirring. The extent of aggregation was probed by turbidity measurements at 350 and 400 nm on an HP 8453 UV-visible spectrometer. Single-time point samples (72 h) were vortexed immediately before the measurement.
Aggregate formation is reported relative to WT or mutant TTR homotetramer where amount of aggregation in the absence of inhibitor is assigned to be 100%.
Blue bars represent data from an aggregate formation assay wherein tetrameric TTR (3.6 μM) is preincubated with inhibitor (3.6 μM or 7.2 μM) for 30 min prior to lowering the pH to 4.4 (72 h). The Y axis in each bar graph (optical density at 350 nm) represents aggregate formation relative to WT TTR (3.6 μM) assigned as 100%.

Data set [2] deals with TTR in human blood plasma (Homo sapiens, UniProt P02766). Briefly: Plasma selectivity binding to TTR, antibody capture/HPLC method. The conditions noted are these: 10.8 μM compound in human plasma, 37° C., 18 h; maximum 2.0; lower limit because of wash losses.
Data set [3] concerns the target T1, WT TTR. As to the kind of experiment: Isothermal titration calorimetry. It is filed as binding. As to the method:
The dissociation constants characterizing the binding of genistein to WT TTR were determined using a Microcal isothermal titration calorimeter (Microcal Inc., Northhampton, Mass.). A solution of the small molecule (final concentration 432 μM in 25 mM Tris (pH 8.0) containing 100 mM KCl, 1 mM EDTA, 10% EtOH,) was prepared and titrated into an ITC cell containing WT TTR (12 μM in 25 mM Tris (pH 8.0) containing 100 mM KCl, 1 mM EDTA, 10% EtOH). For all runs, a small preliminary injection was followed by identical injections (2.0-5.0 μL) up to a ligand:protein molar ratio of at least 4:1. The data were fit by a nonlinear least squares approach to either an identical binding sites model, or a sequential interacting binding sites model (Foss, T. R.; et al. J. Mol. Biol. 2005, in press) utilizing Microsoft Excel (Microsoft Corporation, Redmond, Wash.) with the Solver plugin.
Isothermal titration calorimetry was employed to determine the dissociation constants of the binding of genistein to WT TTR at pH 8.0 (25° C.). Integration of the thermogram after subtraction of blanks yielded a binding isotherm that fit equally well to a model of two sequential interacting binding sites with negative cooperativity or two identical non-interacting sites. The fit to sequential binding sites yielded dissociation constants of Kd1=40±25 nM, Kd2=1400±170 nM. Fitting the data to identical binding sites gave Kd1=Kd2=845±45 nM with an occupancy of 1.92±0.07.
Background: In ITC the heat of successive injections is recorded.

The conditions of data set [4]: even at the relatively high concentrations employed; cited from earlier work.
For the next data set, the target named is T2, V122I TTR (Homo sapiens, UniProt P02766, V142I).
T2 construct: made in house; host or cells: E. coli
As to the kind of experiment: Urea-mediated tetramer dissociation by far-UV circular dichroism. It is filed as biochemical. The conditions noted are these: V122I TTR 1.8 μM, 6.0 M urea, after 120 h. As to the method:
(§1) TTR (400 μL, 0.25 mg/mL; 4.5 μM tetramer) was pre-incubated with genistein at concentrations of either 4.5 or 9.0 μM for 18 h at 25° C. Urea (10M, 600 μL) in 50 mM phosphate buffer (pH 7.0) containing 100 mM KCl, 1 mM EDTA and 1 mM DTT was added to the samples immediately prior to the first measurement (1.0 mL total volume, 6.0 M urea, 0.1 mg/mL TTR (1.8 μM tetramer) final concentration). Circular dichroism spectra were recorded as a function of time up to 120 h (25° C.) using a wavelength scan from 220 to 214 nm, sampling every 0.5 nm. The signal from 218 to 215 was averaged and plotted to determine the fraction of TTR tetramer that was dissociated and unfolded at each time point.
(§2) Genistein was further tested for its ability to kinetically stabilize tetrameric TTR against urea-induced dissociation. Since dissociation of the tetramer is required for urea-induced monomer denaturation, it is possible to monitor rate-limiting tetramer dissociation by linking this process to fast monomer unfolding in a post-transition urea concentration (6 M), rendering the process irreversible. The rate and extent of tetramer dissociation at different small molecule concentrations was monitored by far-UV CD spectroscopy in 6.0 M urea. Genistein exerts its most dramatic effect on the amplitude of WT TTR tetramer dissociation (FIG. 4A). At equimolar amounts of genistein and WT TTR (1.8 μM), only 10% of the protein dissociates and unfolds after 120 h, implying that the remainder is stabilized as a consequence of small molecule binding. This compares to 33% of dissociation for V122I (FIG. 4C, triangles) and 87% V30M (FIG. 4B, triangles) dissociating under identical conditions. When the inhibitor concentration (3.6 μM) is twice that of TTR (1.8 μM), only 1% of WT TTR (FIG. 4A, diamonds), 18% of V122I (FIG. 4C, diamonds), and 70% of V30M (FIG. […]) dissociates over the same time period.
(§3) FIG. 4 illustrates a series of graphs showing the rate of urea-mediated tetramer dissociation (6 M) curves for (A) WT (circles), (B) V30M, and (C) V122I TTR. TTR dissociation is slowed dramatically when WT and the variants are preincubated with genistein (1.8 μM, triangles; 3.6 μM, diamonds). The far-UV CD ellipticity at 214-218 nm was compared to that of WT to determine the fraction of TTR that dissociated and rapidly unfolded at each time point.

In the next data set the target is T3, V30M TTR (Homo sapiens, UniProt P02766, V50M).
T3 construct: made in house; host or cells: E. coli
The data set is described as above. Conditions: V30M TTR 1.8 μM, 6.0 M urea, after 120 h. Format: biochemical. As to the method: as §1, §2, §3

Data set [5] deals with T1, WT TTR. Described as above. Format: biochemical. The conditions noted are these: WT TTR 1.8 μM, 6.0 M urea, after 120 h. How it is done: as §1, §2, §3
The conditions of data set [6]: cited from earlier work.
For another data set, the system named is Caco-2 cells. The conditions noted are these: Caco-2 cells and perfused rat intestinal models; cited from earlier work.

On to `O=c1cc(-c2ccc(O)cc2)oc2cc(O)cc(O)c12` [apigenin], for which, on WT TTR [1] (pH 4.4), the “decrease in WT TTR aggregation inhibition relative to genistein” value came out at 2 fold.

On to `O=c1c(-c2ccc(O)cc2)coc2cc(O)ccc12` [daidzein, reference compound], for which the “decrease in aggregation inhibition potency relative to genistein” value at WT TTR [1] (inhibitor 7.2 μM, twice that of TTR) is given as “approximately 4 fold”. Moreover, in data set [2], the “plasma selectivity: binding stoichiometry to TTR” value is recorded as no less than 0.75 equivalents per tetramer.

For `O=c1c(-c2ccc(O)cc2)coc2cc(O)cc(O)c12` [genistein], the Kd on WT TTR [3] (Kd1, two sequential interacting binding sites model (negative cooperativity), pH 8.0, 25° C.) worked out at 0.04 µM; on WT TTR [3] (Kd1=Kd2, two identical non-interacting sites model, pH 8.0, 25° C.) it was 0.845 µM; at WT TTR [3] (read-out: Kd2, negative cooperativity, ITC) it was 1.4 µM; on WT TTR [3] (read-out: Kd2, two sequential interacting binding sites model (negative cooperativity), pH 8.0, 25° C.), 1.4 µM. In [4], the “adverse health effects in toxicity studies” value is “does not appear to cause adverse health effects”. In addition, the “plasma selectivity: binding stoichiometry to TTR” value in [2] was determined as 1.45 equivalents per tetramer. The “protein that dissociates and unfolds” value at V122I TTR (genistein 1.8 μM) amounted to 33%; on V122I TTR (genistein 3.6 μM) it was 18%; at V30M TTR (genistein 1.8 μM), 87%; at V30M TTR (genistein 3.6 μM), 70%; on WT TTR [5] (genistein 1.8 μM) it was 10%; on WT TTR [5] (genistein 3.6 μM), 1%. Further, the “in vivo plasma concentrations of genistein” value in data set [6] (dose of 16 mg/kg of body weight, oral) is 0.1 to 8 µM. In addition, the half-life in plasma in data set [6] (men) was 3.2 h; in [6] (women) it was 3.8 h. Moreover, the intestinal absorption entry with Caco-2 cells is “efficiently absorbed into the intestine”.

For `O=c1c(-c2ccc(O)cc2)coc2cc(O[C@@H]3O[C@H](CO)[C@@H](O)[C@H](O)[C@H]3O)cc(O)c12` [genistin, reference compound], in the data set with Caco-2 cells, the “permeability, lower than corresponding aglycone (genistein)” value was “approximately 5 fold”.
